In brackets after ≈: the same amount, converted by molar mass. Read-outs that look alike come from different tables or passages of the source. Marks after values point to notes of the source that are not given here.
How the values were obtained:
[1] = system: Escherichia coli CCM 4517; test: Antibacterial microdilution broth, EC; assay type: cell-based; settings: Escherichia coli, read-out: MIC EC
Trichosporon asahii 1188 = test: Antifungal microdilution broth, TA; assay type: cell-based; settings: read-out: MIC TA
Candida tropicalis 156 = test: Antifungal microdilution broth, CT; assay type: cell-based; settings: read-out: MIC CT
[2] = system: M. avium ssp. avium CNCTC My 80/72 (ATCC 15769); test: Antimycobacterial microdilution MABA, M. avium; assay type: cell-based, Mycobacterium avium; settings: for MIC: Mycobacterium avium
[3] = system: Staphylococcus aureus CCM 4516/08; test: Antibacterial microdilution broth, SA; assay type: cell-based; settings: Staphylococcus aureus
[4] = system: Staphylococcus epidermidis H 6966/08; test: Antibacterial microdilution broth, SE; assay type: cell-based; settings: Staphylococcus epidermidis, read-out: MIC SE
[5] = system: Enterococcus sp. J 14365/08; test: Antibacterial microdilution broth, EF; assay type: cell-based; settings: Enterococcus, read-out: MIC EF
[6] = system: Aspergillus fumigatus 231; test: Antifungal microdilution broth, AF; assay type: cell-based; settings: read-out: MIC AF
Candida glabrata 20/I = test: Antifungal microdilution broth, CG; assay type: cell-based; settings: Nakaseomyces glabratus, 20/I, read-out: MIC CG
[7] = system: Trichophyton interdigitale 445; test: Antifungal microdilution broth, TI; assay type: cell-based; settings: read-out: MIC TI
[8] = system: Lichtheimia corymbifera 272; test: Antifungal microdilution broth, LC; assay type: cell-based; settings: read-out: MIC LC
[9] = system: Pseudomonas aeruginosa CCM 1961; test: Antibacterial microdilution broth, PA; assay type: cell-based; settings: Pseudomonas aeruginosa, read-out: MIC PA
Candida krusei E28 = test: Antifungal microdilution broth, CK; assay type: cell-based; settings: Pichia kudriavzevii, read-out: MIC CK
[10] = system: Mycobacterium tuberculosis H37Rv CNCTC My 331/88 (ATCC 27294); test: Antimycobacterial microdilution MABA, M. tuberculosis; assay type: cell-based; settings: for MIC: Mycobacterium tuberculosis
[11] = system: M. kansasii CNCTC My 235/80 (ATCC 12478); test: Antimycobacterial microdilution MABA, M. kansasii; assay type: cell-based, Mycobacterium kansasii; settings: for MIC: Mycobacterium kansasii
[12] = system: Candida albicans ATCC 44859; test: Antifungal microdilution broth, CA; assay type: cell-based; settings: Candida albicans, read-out: MIC CA
[13] = system: Staphylococcus aureus H 5996/08 methicillin resistant; test: microbe, parasite or virus in culture; assay type: cell-based; settings: Staphylococcus aureus, MRSA, read-out: MIC MRSA
[14] = system: Mycobacterium smegmatis CCM 4622 (ATCC 607); test: Antimycobacterial microdilution, M. smegmatis; assay type: cell-based; settings: Mycolicibacterium smegmatis, read-out: M. smeg. ATCC 607 MIC
[15] = Trichosporon asahii, 1188, 24 h
[16] = Trichosporon asahii, 1188, 48 h
[17] = ATCC15769, pH 6.6, read-out: M. avium ATCC 15769 MIC
[18] = CCM4516, 24 h, read-out: MIC SA, 24 h
[19] = CCM4516, 48 h, read-out: MIC SA, 48 h
[20] = Aspergillus fumigatus, 231, 24 h
[21] = Aspergillus fumigatus, 231, 48 h
[22] = Trichophyton interdigitale, 445, 72 h
[23] = Trichophyton interdigitale, 445, 120 h
[24] = Lichtheimia corymbifera, 272, 24 h
[25] = Lichtheimia corymbifera, 272, 48 h
[26] = Middlebrook 7H9 with OADC growth supplement, pH = 6.6, MABA
[27] = read-out: Mtb H37Rv ATCC 27294 MIC, Middlebrook 7H9 with OADC growth supplement, pH = 6.6, MABA
[28] = ATCC12478, pH 6.6, read-out: M. kans. ATCC 12478 MIC, Middlebrook 7H9 with OADC, pH 6.6, MABA
[29] = ATCC15769, Middlebrook 7H9 with OADC, pH 6.6, MABA, read-out: M. avium ATCC 15769 MIC
[30] = Middlebrook 7H9 with OADC growth supplement, pH = 6.6, MABA, read-out: Mtb H37Rv ATCC 27294 MIC
[31] = ATCC12478, Middlebrook 7H9 with OADC, pH 6.6, MABA, read-out: M. kans. ATCC 12478 MIC
[32] = Middlebrook 7H9 with OADC, resazurin
[33] = Middlebrook 7H9 with OADC, pH 6.6, MABA

Compound | MIC ([1]; CCM4517, 24 h) [µM] | MIC ([1]; CCM4517, 48 h) [µM] | MIC (Trichosporon asahii 1188; [15]) [µM] | MIC (Trichosporon asahii 1188; [16]) [µM] | MIC (Candida tropicalis 156; Candida tropicalis, 156, 24 h) [µM] | MIC (Candida tropicalis 156; Candida tropicalis, 156, 48 h) [µM] | MIC [2, 17] [µg/mL] | MIC [3, 18] [µM] | MIC [3, 19] [µM] | MIC ([4]; H6966/08, 24 h) [µM] | MIC ([4]; H6966/08, 48 h) [µM] | MIC ([5]; SP.J14365/08, 24 h) [µM] | MIC ([5]; SP.J14365/08, 48 h) [µM] | MIC [6, 20] [µM] | melting point [°C] | Mtb H37Rv ATCC 27294 MIC [10, 26] [µg/mL] | MIC [2, 29] [µg/mL] | MIC [10, 30] [µg/mL] | MIC [11, 31] [µg/mL] | MIC [14, 32] [µg/mL] | further results
O=C(Nc1cncc(Cl)n1)c1cccc(Cl)c1 [Compound 3k] | > 125 | > 125 | > 125 | > 125 | > 125 | > 125 | > 100 | > 125 | > 125 | > 125 | > 125 | > 125 | > 125 | > 125 | 166 to 167.1 | >100 |  |  |  |  | MIC [6, 21]: > 125 µM; MIC (Candida glabrata 20/I; 24 h): > 125 µM; MIC (Candida glabrata 20/I; 48 h): > 125 µM; MIC [7, 22]: > 125 µM; MIC [7, 23]: > 125 µM; MIC [8, 24]: > 125 µM; MIC [8, 25]: > 125 µM; MIC ([9]; CCM1961, 72 h): > 125 µM; MIC ([9]; CCM1961, 120 h): > 125 µM; MIC (Candida krusei E28; E28, 24 h): > 125 µM; MIC (Candida krusei E28; E28, 48 h): > 125 µM; MIC [10, 27]: > 100 µg/mL; MIC [11, 28]: > 100 µg/mL; MIC ([12]; ATCC44859, 24 h): > 125 µM; MIC ([12]; ATCC44859, 48 h): > 125 µM; MIC ([13]; 24 h): > 125 µM; MIC ([13]; 48 h): > 125 µM; MIC [14]: ≥ 500 µg/mL
Cc1ccc(C(=O)Nc2cncc(Cl)n2)cc1 [Compound 3h] |  |  |  |  |  |  |  |  |  |  |  |  |  |  | 169.1 to 170 | >100 | > 100 | > 100 | > 100 | ≥ 500 | 
O=C(Nc1cncc(Cl)n1)c1ccc(Cl)cc1 [Compound 3l] |  |  |  |  |  |  |  |  |  |  |  |  |  |  | 193.8 to 194.7 | >100 | > 100 | > 100 | > 100 | ≥ 500 | 
CCc1ccc(C(=O)Nc2cnccn2)cc1 [Compound 1i] | > 500 | > 500 | > 500 | > 500 | > 500 | > 500 | > 100 | > 500 | > 500 | 500 (≈ 114 µg/mL) | 500 (≈ 114 µg/mL) | 500 (≈ 114 µg/mL) | 500 (≈ 114 µg/mL) | > 500 |  |  |  |  |  |  | MIC [6, 21]: > 500 µM; MIC (Candida glabrata 20/I; 24 h): > 500 µM; MIC (Candida glabrata 20/I; 48 h): > 500 µM; MIC [7, 22]: > 500 µM; MIC [7, 23]: > 500 µM; MIC [8, 24]: > 500 µM; MIC [8, 25]: > 500 µM; MIC ([9]; CCM1961, 72 h): > 500 µM; MIC ([9]; CCM1961, 120 h): > 500 µM; MIC (Candida krusei E28; E28, 24 h): > 500 µM; MIC (Candida krusei E28; E28, 48 h): > 500 µM; MIC [10, 27]: > 100 µg/mL; MIC [11, 28]: > 100 µg/mL; MIC ([12]; ATCC44859, 24 h): > 500 µM; MIC ([12]; ATCC44859, 48 h): > 500 µM; MIC ([13]; 24 h): > 500 µM; MIC ([13]; 48 h): > 500 µM; MIC [14]: ≥ 500 µg/mL
O=C(Nc1cncc(Cl)n1)c1ccccc1 [Compound 3a] |  |  |  |  |  |  |  |  |  |  |  |  |  |  | 152.8 to 153.6 | >100 | > 100 | > 100 | > 100 | ≥ 500 | 
O=C(Nc1cnc(Cl)cn1)c1cccc(C(F)(F)F)c1 [Compound 2n] |  |  |  |  |  |  |  |  |  |  |  |  |  |  | 155.4 to 156.4 |  | > 100 | 25 (≈ 82.9 µM) | > 100 | ≥ 500 | M. avium ATCC 15769 MIC [2, 33]: >100 µg/mL; M. kans. ATCC 12478 MIC [11, 33]: >100 µg/mL
COc1ccc(C(=O)Nc2cncc(Cl)n2)cc1 [Compound 3g] |  |  |  |  |  |  |  |  |  |  |  |  |  |  | 196.9 to 198.8 |  | > 100 | > 100 | > 100 | ≥ 500 | 
COc1cccc(C(=O)Nc2cnccn2)c1 [Compound 1f] | > 500 | > 500 | > 500 | > 500 | > 500 | > 500 | > 100 | > 500 | > 500 | > 500 | > 500 | > 500 | > 500 | > 500 |  | >100 |  |  |  |  | MIC [6, 21]: > 500 µM; MIC (Candida glabrata 20/I; 24 h): > 500 µM; MIC (Candida glabrata 20/I; 48 h): > 500 µM; MIC [7, 22]: > 500 µM; MIC [7, 23]: > 500 µM; MIC [8, 24]: > 500 µM; MIC [8, 25]: > 500 µM; MIC ([9]; CCM1961, 72 h): > 500 µM; MIC ([9]; CCM1961, 120 h): > 500 µM; MIC (Candida krusei E28; E28, 24 h): > 500 µM; MIC (Candida krusei E28; E28, 48 h): > 500 µM; MIC [10, 27]: > 100 µg/mL; MIC [11, 28]: > 100 µg/mL; MIC ([12]; ATCC44859, 24 h): > 500 µM; MIC ([12]; ATCC44859, 48 h): > 500 µM; MIC ([13]; 24 h): > 500 µM; MIC ([13]; 48 h): > 500 µM; MIC [14]: ≥ 500 µg/mL
COc1cccc(C(=O)Nc2cncc(Cl)n2)c1 [Compound 3f] |  |  |  |  |  |  |  |  |  |  |  |  |  |  | 131.6 to 132.7 | 50 | 100 (≈ 379 µM) | 50 (≈ 190 µM) | 100 (≈ 379 µM) | ≥ 500 | M. avium ATCC 15769 MIC [2, 33]: 100 ^c µg/mL; M. kans. ATCC 12478 MIC [11, 33]: 100 ^c µg/mL

Source: publication PMC6225228, “Design, Synthesis and Evaluation of N-pyrazinylbenzamides as Potential Antimycobacterial Agents” (Molecules : A Journal of Synthetic Chemistry and Natural …, 2018)
